The text below walks through data of patent publication US20150368616A1, “METHODS FOR INDUCTION OF CELL FATES FROM PLURIPOTENT CELLS” (THE CLEVELAND CLINIC FOUNDATION, priority 2013, published 2015).

In series [1] the test system is Ngn3 protein. The experiment in a line: Ngn3 protein stability and half-life in HepG2 cells, cycloheximide time course, Western blot. The series is classed as cell-based. The following applies: HepG2 cells exposed to MG132, CHX time course. The source says:
I. Protein stability and half-life assessment of Ngn3 in HepG2 cells. HepG2 cells were transfected with pTRE2-Ngn3 and pCMV-rtTA, treated with Doxycycline for 24 hr, and on the subsequent day pre-exposed to the proteasomal inhibitor MG132 for 5 hr. At time t=0, protein synthesis was inhibited by cycloheximide (CHX). Western blot using anti-Ngn3 antibodies are shown; b-actin served as a control, and remains stable. MG132 treatment leads to Ngn3 protein accumulation at t=0, and strongly stabilizes the protein, which rapidly decays in non-treated cells. J. Experiment conducted similarly as in I, but CMV-driven versions of Notch1 and Notch2 intracellular domains (N1ICD, N2ICD respectively) (left), or dominant-negative mastermind-like1 (DN-MAML1) were co-transfected with pTRE2-Ngn3. The left-most blot is overexposed to reveal the lower level of accumulated Ngn3 protein in presence of N1ICD, N2ICD, and the loss of Ngn3 upon CHX treatment. The analysis was done 1 hr post CHX treatment. […] K. Mouse pancreatic E14.5 explants were subjected to short-term treatment of CHX (1 hr) and MG132 (5 hr pre, and post-culture) as indicated. Total protein was isolated and subjected to anti-Ngn3 Western blotting. Levels of Ngn3 increase in presence of MG132, and decrease in response to CHX. Ngn3 protein levels increase correspondingly in presence of DAPT, a condition where the protein remains stable (CHX+DAPT lane). L. Stability measurements of Ngn3 in the presence of various cellular regulatory proteins. The experiment was conducted as in I and J. Decay scans (right) provide a measure of the decay rate of Ngn3. In all cases, the t=0 Ngn3 levels prior to CHX treatment is paralleled by the relative half-life of the protein. Destabilizing conditions include N1ICD, N2ICD, and Hes1. Stabilizing conditions include DN-MAML1 and DAPT-treatment. […] Hes1 is able to destabilize Ngn3 in the presence of DN-MAML1.
While Hes1 is known to directly repress Ngn3 expression, this would be an insufficient explanation for the observed results in which Ngn3 was driven by a Pdx1-tTA;tetO governed system. […] As destabilization of other bHLH factors, including NGN, and hASH1 has been observed, which has also implicated Notch, we then tested if a similar mechanism might operate in pancreas. As a means to mechanistically address this question, we first determined if Ngn3 protein half-life was regulated by proteasomal activity. Using three different heterologous cell lines (HepG2, Hek293, and CHO) conditionally expressing Ngn3, we observed a rapid turnover of Ngn3 protein after cycloheximide (CHX) addition; conditions where the control protein, beta-Actin, remained stable (FIG. 34I and data not shown). […]
On the technique in general: A western blot detects proteins with antibodies after separation by electrophoresis.

Series [2] concerns forward differentiating hES culture. The experiment in a line: Two stage protocol: Pan-CM 8 days then second stage medium with MG132, DAPT, forskolin, sodium propionate; transcript analysis. As to conditions: 8 days Pan-CM then second stage medium. The series is classed as cell-based, human. On the procedure: As a means to optimize the differentiation of insulin producing cells a two stage protocol was used in which pluripotent cultures were incubated in the presence of Pan-CM for 8 days as a means of generating pancreatic precursors cellular population. The medium these cultures were incubated in were subsequently changed to a medium designed to enhance differentiation of a pancreatic precursor towards a beta-cell terminal fate. All second stage experiments were performed in a medium composed of DMEM/F12 containing 12 mM Glucose supplemented with 1% B27, 1% Pyruvate, 1 uM Alk5 Inh II, 500 ng/ml Noggin and 0.5 uM (1,25 OH2)-Vit D3.
Among the compounds assayed for the ability to increase insulin production in a forward differentiating culture was the proteosomal inhibitor MG132 which we used in the previous example to stabilize Ngn3 protein. We also included the gamma secretase inhibitor DAPT, which was shown in the previous example to greatly increase beta-cell formation in the developing embryonic pancreatic explant study. We also included the short fatty acid salt sodium propionate, which acts as an agonist of short-chain fatty acid receptors. We also included the adenylyl cyclase activator forskolin. We also included the nuclear hormone receptor agonist 1,25 (OH)2)-Vit D3, which binds to, and activates the VDR protein. We also used intermediate concentrations of glucose, shown by others to increase formation of insulin producing cells from pluripotent derivatives. These compounds were used individually or in combination (as outlined in FIG. 37 panel A) to increase insulin-producing endocrine cell formation in a short term Pan-CM treated forward differentiating hES culture system.

Series [3] deals with endogenous Ngn3. The experiment in a line: Mouse pancreatic E14.5 explants treated with CHX, MG132, DAPT; anti-Ngn3 Western blotting. The series is classed as cell-based. As to conditions: E14.5 mouse pancreatic explants, MG132 5 hr. The source says: I. Protein stability and half-life assessment of Ngn3 in HepG2 cells. HepG2 cells were transfected with pTRE2-Ngn3 and pCMV-rtTA, treated with Doxycycline for 24 hr, and on the subsequent day pre-exposed to the proteasomal inhibitor MG132 for 5 hr. At time t=0, protein synthesis was inhibited by cycloheximide (CHX). Western blot using anti-Ngn3 antibodies are shown; b-actin served as a control, and remains stable. MG132 treatment leads to Ngn3 protein accumulation at t=0, and strongly stabilizes the protein, which rapidly decays in non-treated cells. J. Experiment conducted similarly as in I, but CMV-driven versions of Notch1 and Notch2 intracellular domains (N1ICD, N2ICD respectively) (left), or dominant-negative mastermind-like1 (DN-MAML1) were co-transfected with pTRE2-Ngn3. The left-most blot is overexposed to reveal the lower level of accumulated Ngn3 protein in presence of N1ICD, N2ICD, and the loss of Ngn3 upon CHX treatment. The analysis was done 1 hr post CHX treatment. […]
While Hes1 is known to directly repress Ngn3 expression, this would be an insufficient explanation for the observed results in which Ngn3 was driven by a Pdx1-tTA;tetO governed system. […] As a means to mechanistically address this question, we first determined if Ngn3 protein half-life was regulated by proteasomal activity. […]

Series [4] concerns Forward differentiating hES cultures. The series is described as follows: Pan-CM two weeks then maturation medium with daily MG132 pulse, transcript analysis. The series is classed as cell-based, human. On the procedure: To successfully differentiate an insulin producing cell a two stage approach was developed. Schematically represented in panel A, pluripotent cultures were treated with Pan-CM for two weeks followed by a switch to a maturation medium (abbreviated MM within panel B) composed of DMEM/F12 with 12 mM glucose supplemented with 5 uM DAPT, 0.5 uM Vit D3, 1% B27, 1 uM Alk 5 Inhibitor and 1 mM Sodium Propionate. In addition cultures were treated with the proteasome inhibitor MG132 at 10 uM for a 4 hour pulse daily for the length of the experiment. We have previously shown that MG132 mediated inhibition of protein degradation promotes sustained Ngn3 signaling resulting in increased endocrine differentiation. […] Substantial increases in several of the endocrine specific genes are observed.
Forward differentiating hES cultures were incubated for two weeks in the presence of Pan-CM at which time culture conditions were changed to a defined maturation medium in addition to being treated daily with MG132. Control cultures remained within Pan-CM for the entire duration of the experiment. […] Transcript levels of Slc30A8, a gene associated with the transport of zinc during the processing of insulin, were increased ˜200 fold when forward differentiating cultures were exposed to MG132. […] It is important to note that while the absolute Glucagon transcript level fold increase was greater than that of insulin, when comparing the effects of forward differentiating cultures treated with Mg132 as to those which were solely treated with Pan-CM there was an ˜5 fold greater increase in relative Glucagon transcript levels as compared to an ˜24 fold greater increase in Insulin transcript levels. […] A similar low increase was also noted for the intestinal specific transcripts Cdx2 and Gucy2c genes, with only an ˜15 and ˜30 fold increase over hES transcript levels.
Also it is important to note that while all of the transcripts assayed throughout this series of experiments were increased in the cultures treated with MG132 the increase in pancreas specific transcripts was always far greater than the increases observed in non-pancreas specific transcripts (i.e., transcripts representative of the liver and intestines).

The mark [5] stands for this setting: two weeks Pan-CM then maturation medium, MG132 daily.

Each structure is given as a SMILES string. Residues, ends and D or L forms follow the SMILES beside them. *: point of attachment. Cbz = O=C(OCc1ccccc1)*

Regarding `CC(C)C[C@@H](C=O)NC(=O)[C@H](CC(C)C)NC(=O)[C@H](CC(C)C)NC(=O)OCc1ccccc1` [MG132, benzyl (S)-4-methyl-1-((S)-4-methyl-1-((S)-4-methyl-1-oxopentan-2-ylamino)-1-oxopentan-2-ylamino)-1-oxopentan-2-ylcarbamate] (Cbz-Leu-Leu-Leu-aldehyde), in series [1], the “half-life of Ngn3 (T1/2)” value was greater than 3 h. In series [2], the Glucagon transcript levels result is given as “remaining approximately the same as controls”, the Hnf6 transcript increase is reported as roughly 90 fold, the “Insulin transcript levels increase over controls” value is given as roughly 80 fold and the Nkx6.1 transcript increase was roughly 12.5 fold. In addition, the Pdx1 transcript increase in series [2] is recorded as roughly 40 fold. The “loss of endogenous Ngn3 following exposure to CHX” value in series [3] is listed as “abrogated”. Also, in series [4], the AFP transcript increase is listed as roughly 85 fold, the Albumin transcript increase is roughly 50 fold, the “Cdx2 increase over hES transcript levels” value is roughly 15 fold and the “Glucagon transcript increase compared to cultures solely treated with Pan-CM” value is on record as roughly 5 fold. Also, in series [4], the “Gucy2c increase over hES transcript levels” value was roughly 30 fold and the “Insulin transcript increase compared to cultures solely treated with Pan-CM” value is roughly 24 fold. The “effect of long incubations on the culture” value in series [4] (forward differentiating culture) is “overall detrimental effect on the culture”. Moreover, in series [4] (setting [5]), the “Glucagon absolute relative level over hES levels” value is roughly 2000 fold, the “Insulin absolute relative level over hES levels” value is roughly 600 fold, the “Mafa relative increase over control conditions” value is recorded as roughly 200 fold and the “Pax4 relative increase over control conditions” value is on record as roughly 300 fold. Further, the “Slc30A8 transcript levels increase” value in series [4] (setting [5]) is recorded as roughly 200 fold.
